Measurements from US11633457B2, “Pharmaceutical compositions comprising oncostatin m (OSM) antagonist derivatives and methods of use” (Boise State University, priority 2019, dated 2023).

Assays:
[1] = tested on: STAT3, JNK, ERK, and AKT; conditions: earlier work (U.S. Ser. No. 15/403,965); cited from earlier work
[2] = tested on: prostate tumor cell; conditions: earlier work (U.S. Ser. No. 15/403,965); cited from earlier work
[3] = tested on: OSM induced secretion of IL-6; assay: ELISA of OSM induced IL-6 secretion; type: cell-based; conditions: pretreatment with inhibitor; FIG. 5
Description: (§1) OSM-SMI-10B was also assayed for its effect on OSM induced secretions of both VEGF and IL-6 by ELISA (FIG. 5).

[4] = tested on: OSM induced secretion of VEGF; assay: ELISA of OSM induced VEGF secretion; type: cell-based; conditions: pretreatment with inhibitor; FIG. 5
Description: as §1

[5] = tested on: OSM-induced phosphorylation of STAT3 on Tyr-705 (pSTAT3); assay: ELISA of OSM-induced phosphorylation of STAT3 (pSTAT3) with inhibitor pretreatment; type: cell-based, human; conditions: for reduction in OSM induced phosphorylation of STAT3 (pSTAT3): 10, 50, and 100 μM per the method of Example 1, FIGS. 4A and 4B; for effect on OSM induced pSTAT3 phosphorylation, initial tests: OSM with or without inhibitor pretreatment, FIG. 3; for reduction of the OSM induced increase in pSTAT3 expression: initial testing, FIG. 6
Description: Therefore, the phosphyloration of various signaling pathways was assayed using an ELISA both with and without inhibitors and at various concentrations.
All human breast carcinoma cell lines used in this aim were purchased from the American Type Culture Collection (ATCC) or Caliper Life Sciences, and the growth of frozen cell aliquots will be initiated on a periodic basis to remove the possibility of cross-cell contamination. The cell lines were regularly tested for mycoplasma contamination by both DAPI staining and PCR. Four invasive ductal carcinoma cell lines, T47D, MCF7, MDA-MB-231 and MDA-MB-468, were used. These include the less aggressive, estrogen receptor-positive (ER+), progesterone receptor positive (PR+), HER2−, luminal T47D and MCF7-luc cell lines, as well as the triple negative breast cancer (TNBC) basal-like cell line, MDA-MB-231-LN-luc, that is metastatic in orthotopic xenografts and the less metastatic TNBC cell line MDA-MB-468. All cell lines express OSMRb, LIFRb, and gp130, as well as various levels of OSM, by RT-PCR
An enzyme-linked immunosorbent assay (ELISA) was used for analyzing initial OSM-induced phosphorylation of STAT3 on Tyr-705 (pSTAT3). T47D, MCF7, and MDA-MB-231 human breast cancer cells induced pSTAT3 upon stimulation with OSM (25 ng/ml) for 30 minutes. OSM-SMI-8 modified inhibitors were used to pretreat the cells in order to assay their ability to inhibit OSM-OSMR interactions. Pretreatment consisted of administering to the cells either 5, 10, 50, or 100 μM of the modified OSM-SMI-8 based inhibitor for 2 hours prior to administration of OSM.

Compound	reduction in OSM induced phosphorylation of STAT3 (pSTAT3) [5]	effect on OSM induced pSTAT3 phosphorylation, initial tests [5]	other results
O=C(O)/C(=C\C=C\c1ccccc1)c1coc(-c2nc(/C(=C/C=C/c3ccccc3)C(=O)O)co2)n1 [OSM-SMI-8]	–	–	inhibition of OSM induced phosphorylation of STAT3, JNK, ERK, and AKT [1]: shown to inhibit; inhibition of OSM induced prostate tumor cell detachment [2]: shown to inhibit
O=C(O)/C=C/c1cc(-c2ccc3c(c2)OCO3)c(-c2ccc3c(c2)OCO3)o1 [OSM-SMI-10B]	significant reduction in pSTAT3 at every treatment level	inhibitory effect	reduction in the OSM induction of IL-6 secretion [3]: large reduction; reduction in the OSM induction of VEGF secretion [4]: large reduction
O=C(/C=C/c1cc(-c2ccc3c(c2)OCO3)c(-c2ccc3c(c2)OCO3)o1)c1ccccc1 [OSM-SMI-10C]	significant reduction in pSTAT3 at every treatment level	inhibitory effect	–
CCOC(=O)/C=C/c1cc(-c2ccc3c(c2)OCO3)c(-c2ccc3c(c2)OCO3)o1 [OSM-SMI-10D]	–	inhibitory effect	–
C(=N\Nc1ccccc1)/c1cc(-c2ccc3c(c2)OCO3)c(-c2ccc3c(c2)OCO3)o1 [OSM-SMI-10E]	significant reduction in pSTAT3 at every treatment level	inhibitory effect	–
O=C(NCc1ccccc1)c1cc(-c2ccc3c(c2)OCO3)c(-c2ccc3c(c2)OCO3)o1 [OSM-SMI-10J]	–	inhibitory effect	–
O=[N+]([O-])c1c(/C=N/Nc2ccccc2)oc(-c2ccc3c(c2)OCO3)c1-c1ccc2c(c1)OCO2 [OSM-SMI-10]	–	–	inhibition of OSM induced phosphorylation of STAT3, JNK, ERK, and AKT [1]: shown to inhibit; inhibition of OSM induced prostate tumor cell detachment [2]: shown to inhibit
O=C(/C=C/c1ccccc1)c1cccc(N2C(=O)c3ccc(Oc4ccc5c(c4)C(=O)N(c4cccc(C(=O)/C=C/c6ccccc6)c4)C5=O)cc3C2=O)c1 [OSM-SMI-23]	–	–	reduction of the OSM induced increase in pSTAT3 expression [5]: more than about half
Cc1ccc(-c2cc(C(=O)Nc3cccc(C(=O)O)c3)c3cc(Br)ccc3n2)cc1C [OSM-SMI-26]	–	–	reduction of the OSM induced increase in pSTAT3 expression [5]: more than about half
